Data: patent EP1202967B1, “SULFURIC ACID MONO-[3-({1-[2-(4-FLUORO-PHENYL)-ETHYL]-PIPERIDIN-4-YL}-HYDROXY-METHYL)-2-METHOXY-PHENYL]ESTER” (AVENTIS PHARMACEUTICALS INC., priority 1999, dated 2001)

Experiments:
human 5-HT2A = biological target: T1, human 5-HT2A (Homo sapiens, UniProt P28223); assay: Receptor binding assay, inhibition of [3H]-ligand binding to human 5-HT2A
T1 construct: expressed in transfected cells; membranes prepared
Method: Cells stably expressing the human homologs of the receptors (dopamine D2L, serotonin 5HT2A and 5HT2C, α1A adrenergic; cloned and expressed at Hoechst Marion Roussel; Grandy et al., 1989: Monsma et al., 1993; Schwinn et al., 1995) were grown: cell membranes were prepared, and kept frozen until used (Kongsamut et al., 1996). The relevance of these binding sites has been extensively discussed in the literature (see for example: Carlsson & Carlsson. 1990; Creese et al., 1976; Gorman & Vargas, 1995; Meltzer et al., 1989). All binding parameters were optimized at Hoechst Marion Roussel; ligand KdS were determined using both saturation analysis (Scatchard) as well as kinetic analysis (association and dissociation rates). Each batch of membrane was validated by checking the ligand Kd, and rank order of potency of selected standard compounds. […]
Membranes were rapidly thawed and diluted to an appropriate concentration (between 20 - 150 µg protein/assay point depending on receptor expression level) in Tris buffer and homogenized. […] Microscint scintillation cocktail (40 µl) were added and the filter plates were counted in a Packard Top Count scintillation counter. Data were analyzed to determine Ki's for compounds of interest (Prusoff & Cheng, […]).Table: Receptor Binding Parameters. […]

human 5-HT2C = biological target: T2, human 5-HT2C (Homo sapiens, UniProt P28335); assay: Receptor binding assay, inhibition of [3H]-ligand binding to human 5-HT2C; settings: [3H]mesulergine 2 nM, CHO cell membranes, 37°C, 40 min
T2 construct: expressed in transfected cells; membranes prepared
T2 sequence (P28335 33-458): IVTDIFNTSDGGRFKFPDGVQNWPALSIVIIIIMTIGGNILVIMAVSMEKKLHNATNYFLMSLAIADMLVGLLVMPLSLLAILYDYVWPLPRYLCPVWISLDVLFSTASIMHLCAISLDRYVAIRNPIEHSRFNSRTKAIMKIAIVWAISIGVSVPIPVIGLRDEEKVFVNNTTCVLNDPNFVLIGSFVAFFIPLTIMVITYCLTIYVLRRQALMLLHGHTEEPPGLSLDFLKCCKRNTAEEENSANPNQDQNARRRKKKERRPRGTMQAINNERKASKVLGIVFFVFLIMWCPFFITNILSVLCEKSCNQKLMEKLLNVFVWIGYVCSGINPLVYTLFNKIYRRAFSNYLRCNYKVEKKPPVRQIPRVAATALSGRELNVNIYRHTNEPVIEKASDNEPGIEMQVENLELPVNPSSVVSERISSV
Method: (§1) Cells stably expressing the human homologs of the receptors (dopamine D2L, serotonin 5HT2A and 5HT2C, α1A adrenergic; cloned and expressed at Hoechst Marion Roussel; Grandy et al., 1989: Monsma et al., 1993; Schwinn et al., 1995) were grown: cell membranes were prepared, and kept frozen until used (Kongsamut et al., 1996). […] All binding parameters were optimized at Hoechst Marion Roussel; ligand KdS were determined using both saturation analysis (Scatchard) as well as kinetic analysis (association and dissociation rates). Each batch of membrane was validated by checking the ligand Kd, and rank order of potency of selected standard compounds. Assays for the serotonin 5HT2A and dopamine D2L receptors were conducted at 37°C in a Tris buffer containing salts (50 mM Tris Buffer, pH 7.7; 120 mM NaCl; 5 mM KCI; 2 mM CaCl2; 1 mM MgCl2), while the serotonin 5-HT2C and α1A adrenergic receptor assays used a different buffer without salts (50 mM Tris, 4 mM CaCl2 and 1% ascorbate, pH 7.4). […]
(§2) Membranes were rapidly thawed and diluted to an appropriate concentration (between 20 - 150 µg protein/assay point depending on receptor expression level) in Tris buffer and homogenized. […] Microscint scintillation cocktail (40 µl) were added and the filter plates were counted in a Packard Top Count scintillation counter.

[1] = Bovine Brain Endothelial Cells (BBMEC) transport study, in vitro BBB permeability; type: in vitro ADME; settings: BBMEC monolayer, mean ± standard deviation
Method: The compounds of this invention are capable of crossing the blood-brain barrier (BBB) as shown by their ability to penetrate across a membrane of a monolayer of bovine brain microvessel endothelial cells, an in vitro model for BBB permeability.
The procedure was performed according to: Kenneth L. Audus et al., Brain Microvessel Endothelial Cell Culture System (Chapter 13) pp 239-258. In Models for Assessing Drug Absorption and Metabolism, Ronald T. Borchardt et al. eds., Plenum Press, New York 1996.

human α1A = biological target: T3, human α1A (Homo sapiens, UniProt P35348); assay: Receptor binding assay, inhibition of [3H]-ligand binding to human α1A; settings: [3H]prazosin 1 nM, CHO cell membranes, 37°C, 40 min
T3 construct: expressed in transfected cells; membranes prepared
T3 sequence (P35348 1-466): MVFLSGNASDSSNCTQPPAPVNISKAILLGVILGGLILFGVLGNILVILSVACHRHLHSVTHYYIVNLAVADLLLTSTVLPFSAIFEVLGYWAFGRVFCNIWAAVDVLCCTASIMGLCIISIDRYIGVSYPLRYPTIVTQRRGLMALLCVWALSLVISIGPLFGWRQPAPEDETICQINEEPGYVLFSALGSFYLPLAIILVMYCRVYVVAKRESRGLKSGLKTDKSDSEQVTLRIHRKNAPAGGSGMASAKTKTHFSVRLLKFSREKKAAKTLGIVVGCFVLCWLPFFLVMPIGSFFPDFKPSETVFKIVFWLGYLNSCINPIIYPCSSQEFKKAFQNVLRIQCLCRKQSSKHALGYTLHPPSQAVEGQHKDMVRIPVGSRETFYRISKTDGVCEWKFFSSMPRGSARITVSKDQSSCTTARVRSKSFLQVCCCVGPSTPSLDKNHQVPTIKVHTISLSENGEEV
Method: as §1, §2

human D2L = biological target: T4, human D2L (Homo sapiens, UniProt P14416); assay: Receptor binding assay, inhibition of [3H]-ligand binding to human D2L; settings: [3H]N-methyl spiperone 1 nM, CHO cell membranes, 37°C, 60 min; read-out: D2(Ki µM)
T4 construct: expressed in transfected cells; membranes prepared
Method: as §1, §2

T1 sequence (P28223 whole entry): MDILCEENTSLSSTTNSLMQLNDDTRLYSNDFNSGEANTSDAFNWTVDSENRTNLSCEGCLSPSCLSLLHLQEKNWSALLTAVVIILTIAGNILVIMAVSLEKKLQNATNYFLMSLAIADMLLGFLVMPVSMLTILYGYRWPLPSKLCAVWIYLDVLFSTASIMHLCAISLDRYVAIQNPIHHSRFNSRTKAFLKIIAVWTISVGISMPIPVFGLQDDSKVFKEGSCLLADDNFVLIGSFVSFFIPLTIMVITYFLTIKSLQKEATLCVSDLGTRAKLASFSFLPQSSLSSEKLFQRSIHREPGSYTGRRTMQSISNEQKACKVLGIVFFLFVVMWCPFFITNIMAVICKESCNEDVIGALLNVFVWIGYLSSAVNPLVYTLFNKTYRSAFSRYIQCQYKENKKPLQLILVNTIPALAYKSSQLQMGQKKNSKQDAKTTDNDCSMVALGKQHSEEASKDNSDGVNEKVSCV
T4 sequence (P14416 whole entry): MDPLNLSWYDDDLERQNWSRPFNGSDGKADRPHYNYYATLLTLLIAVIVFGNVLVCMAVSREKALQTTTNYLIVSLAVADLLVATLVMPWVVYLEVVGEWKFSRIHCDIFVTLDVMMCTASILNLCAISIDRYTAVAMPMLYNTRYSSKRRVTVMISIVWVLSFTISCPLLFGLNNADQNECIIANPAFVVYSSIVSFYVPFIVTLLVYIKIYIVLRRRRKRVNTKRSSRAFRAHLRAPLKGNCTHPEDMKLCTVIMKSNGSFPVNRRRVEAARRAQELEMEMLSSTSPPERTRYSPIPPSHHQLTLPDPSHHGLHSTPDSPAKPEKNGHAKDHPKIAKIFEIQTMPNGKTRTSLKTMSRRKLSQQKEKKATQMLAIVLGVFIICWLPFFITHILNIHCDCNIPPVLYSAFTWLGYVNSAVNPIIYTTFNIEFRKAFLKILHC

COc1c(OS(=O)(=O)O)cccc1C(O)C1CCN(CCc2ccc(F)cc2)CC1 (single isomer, unassigned) [Example 1H, Sulfuric acid mono-(+)-(3-(-{1-[2-(4-fluoro-phenyl)-ethyl]-piperidin-d-yl}-hydroxy-methyl)-2-methoxy-phenyl] ester]
Ki (human 5-HT2A; [3H]N-methyl spiperone 1.5 nM, BHK cell membranes, 37°C, 40 min): 0.16 µM | Ki (human 5-HT2C): > 1 µM | Papp at 5.4 µM [1]: 41.4 ± 16.4 ×10⁻⁶ cm/s | Papp at 16 µM [1]: 52.5 ± 9.5 ×10⁻⁶ cm/s | Ki (human α1A): > 1 µM | Ki (human D2L): > 1 µM

OC[C@@H](O)[C@@H](O)[C@H](O)[C@H](O)CO [Mannitol, reference compound]
Papp at 5.4 µM [1]: 27.6 ± 2.3 ×10⁻⁶ cm/s | Papp at 16 µM [1]: 27.6 ± 2.3 ×10⁻⁶ cm/s

CN1CN(c2ccccc2)C2(CCN(CCCC(=O)c3ccc(F)cc3)CC2)C1=O [[^3H]N-methyl spiperone, reference compound]
Kd (human 5-HT2A; radioligand Kd at human 5-HT2A, BHK, saturation (Scatchard) and kinetic analysis): 0.92 nM
